Assay results taken from patent publication US20220289732A1, “HETEROCYCLIC WDR5 INHIBITORS AS ANTI-CANCER COMPOUNDS” (NOVARTIS AG, priority 2019, published 2022).

What was measured:
MV4-11 cells = assay: MV4-11 6-day cell growth CTG (CellTiter-Glo) assay; format: cell-based; settings: Homo sapiens, MV4-11, 144 h, 6 days, read-out: (c) MLL/WDR5 cell proliferation assay//MLL/WDR5 proliferation MV4:11 Qualified AC50
Method in brief: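 IC50 comes from a dose-response fit of % inhibition relative to DMSO controls, with viable cells measured by CellTiter-Glo luminescence. Compounds were tested over 12 points (1:3, starting at 50 μM final) on MV4-11 cells plated at 300/well and grown 6 days.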

[1] = target: wild type MLL1 four-member complex (MLL1-4C) (Homo sapiens, UniProt P61964); assay: MLL1 LC-MS assay (SAH production); format: biochemical; settings: read-out: (b) MLL LCMS Peptide Val.v.1 Qualified AC50
Method in brief: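 SAH formation, measured by LC-MS/MS after a TFA quench containing d4-SAH, was normalised to no-compound and no-enzyme controls and fitted to a dose-response curve for IC50. Reactions ran 120 min at rt (pH 8.0 Tris buffer) with final 30 nM MLL1 four-member complex, 2.5 μM SAM and 10 μM biotinylated H3[1-21] peptide, after a 20-min enzyme/SAM-compound preincubation.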

WDR5 = WDR5 (Homo sapiens, UniProt P61964); assay: WDR5 HTRF binding assay; settings: read-out: (a) WDR5 HTRF Pep Val v.1[Inhibitor/IC50]Qualified AC50
Method in brief: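 In this HTRF displacement format, biotinylated MLL1 WIN peptide (3762-3773, 20 nM) binds WDR5 (6 nM) in 25 mM Hepes pH 7.5 with 100 mM NaCl, 2 mM DTT and 0.1% BSA for 20 min at rt. Detection used streptavidin-APC/anti-His-Eu for 1 hr. IC50 came from dose-response fits of normalized signal; 15 nM biotin-PEG-His peptide served as counter assay.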

Compound	AC50 (MV4-11 cells)	AC50 [1]	IC50 (WDR5)
CCOc1cc(CN2CCc3c(cc(CCN(C)CC)cc3-c3cc(C)cnc3C(F)F)C2=O)ncc1C#N [Example 144, 6-((5-(2-(difluoromethyl)-5-methylpyridin-3-yl)-7-(2-(ethyl(methyl)amino)ethyl)-1-oxo-3,4-dihydroisoquinolin-2(1H)-yl)methyl)-4-ethoxynicotinonitrile]	10 to 1000 nM	10 to 1000 nM	10 to 1000 nM
CCOc1cc([C@H](C)N2CCc3c(cc(CCN(C)CC)cc3-c3cn(C)nc3C)C2=O)ncc1F [Example 145, (S)-5-(1,3-dimethyl-1H-pyrazol-4-yl)-2-(1-(4-ethoxy-5-fluoropyridin-2-yl)ethyl)-7-(2-(ethyl(methyl)amino)ethyl)-3,4-dihydroisoquinolin-1(2H)-one]	10 to 1000 nM	10 to 1000 nM	10 to 1000 nM
CCN(C)CCc1cc2c(c(-c3cn(C)nc3C(F)F)c1)CCN(C(C)c1cnc(F)c(OC)c1)C2=O (stereo not drawn) [Example 146, 5-(3-(difluoromethyl)-1-methyl-1H-pyrazol-4-yl)-7-(2-(ethyl(methyl)amino)ethyl)-2-(1-(6-fluoro-5-methoxypyridin-3-yl)ethyl)-3,4-dihydroisoquinolin-1(2H)-one]	10 to 1000 nM	10 to 1000 nM	10 to 1000 nM
CCOc1cc(C(C)N2CCc3c(cc(CCN(C)CC)cc3-c3ccc(Cl)nc3C)C2=O)ncc1C#N (stereo not drawn) [Example 147, 6-(1-(5-(6-chloro-2-methylpyridin-3-yl)-7-(2-(ethyl(methyl)amino)ethyl)-1-oxo-3,4-dihydroisoquinolin-2(1H)-yl)ethyl)-4-ethoxynicotinonitrile]	10 to 1000 nM	10 to 1000 nM	10 to 1000 nM
CCOc1cc(C(C)N2CCc3c(cc(CCN(C)CC)cc3-c3cn(C)nc3C(F)(F)F)C2=O)ncc1C#N (stereo not drawn) [Example 148, 4-ethoxy-6-(1-(7-(2-(ethyl(methyl)amino)ethyl)-5-(1-methyl-3-(trifluoromethyl)-1H-pyrazol-4-yl)-1-oxo-3,4-dihydroisoquinolin-2(1H)-yl)ethyl)nicotinonitrile]	10 to 1000 nM	10 to 1000 nM	10 to 1000 nM
CCOc1cc([C@H](C)N2CCc3c(cc(CCN(C)CC)cc3-c3cn(C)c(=O)cc3C(F)F)C2=O)ncc1C#N [Example 149, (S)-6-(1-(5-(4-(difluoromethyl)-1-methyl-6-oxo-1,6-dihydropyridin-3-yl)-7-(2-(ethyl(methyl)amino)ethyl)-1-oxo-3,4-dihydroisoquinolin-2(1H)-yl)ethyl)-4-ethoxynicotinonitrile]	10 to 1000 nM	10 to 1000 nM	10 to 1000 nM
CCOc1cc(C(C)N2CCc3c(cc(CCN(C)CC)cc3-c3cc(O)cnc3C)C2=O)ncc1C#N (stereo not drawn) [Example 150, 4-ethoxy-6-(1-(7-(2-(ethyl(methyl)amino)ethyl)-5-(5-hydroxy-2-methylpyridin-3-yl)-1-oxo-3,4-dihydroisoquinolin-2(1H)-yl)ethyl)nicotinonitrile]	10 to 1000 nM	10 to 1000 nM	10 to 1000 nM
CCOc1cc(C(C)N2CCc3c(cc(CCN(C)CC)cc3-c3cccnc3CC)C2=O)ncc1C#N (stereo not drawn) [Example 151, 4-ethoxy-6-(1-(7-(2-(ethyl(methyl)amino)ethyl)-5-(2-ethylpyridin-3-yl)-1-oxo-3,4-dihydroisoquinolin-2(1H)-yl)ethyl)nicotinonitrile]	10 to 1000 nM	10 to 1000 nM	10 to 1000 nM
CCOc1cc([C@H](C)N2CCc3c(cc(CCN(C)CC)cc3-c3ccncc3Cl)C2=O)ncc1C#N [Example 152, (S)-6-(1-(5-(3-chloropyridin-4-yl)-7-(2-(ethyl(methyl)amino)ethyl)-1-oxo-3,4-dihydroisoquinolin-2(1H)-yl)ethyl)-4-ethoxynicotinonitrile]	10 to 1000 nM	10 to 1000 nM	10 to 1000 nM
CCOc1cc(C(C)N2CCc3c(cc(CCN(C)CC)cc3-c3cc(C(C)O)cnc3Cl)C2=O)ncc1C#N (stereo not drawn) [Example 153, 6-(1-(5-(2-chloro-5-(1-hydroxyethyl)pyridin-3-yl)-7-(2-(ethyl(methyl)amino)ethyl)-1-oxo-3,4-dihydroisoquinolin-2(1H)-yl)ethyl)-4-ethoxynicotinonitrile]	10 to 1000 nM	10 to 1000 nM	10 to 1000 nM
CCOc1cc(CN2CCc3c(cc(CCN(C)CC)cc3-c3cc(C)ncc3F)C2=O)ncc1C#N [Example 154, 4-ethoxy-6-((7-(2-(ethyl(methyl)amino)ethyl)-5-(5-fluoro-2-methylpyridin-4-yl)-1-oxo-3,4-dihydroisoquinolin-2(1H)-yl)methyl)nicotinonitrile]	10 to 1000 nM	10 to 1000 nM	10 to 1000 nM
CCOc1cc(CN2CCc3c(cc(CCN(C)CC)cc3-c3ccc(N)nc3C)C2=O)ncc1C#N [Example 155, 6-((5-(6-amino-2-methylpyridin-3-yl)-7-(2-(ethyl(methyl)amino)ethyl)-1-oxo-3,4-dihydroisoquinolin-2(1H)-yl)methyl)-4-ethoxynicotinonitrile]	10 to 1000 nM	10 to 1000 nM	10 to 1000 nM
CCOc1cc([C@@H](C)N2CCc3c(cc(CCN(C)CC)cc3-c3cc(C)cnc3C)C2=O)ncc1C#N [Example 156, (R)-6-(1-(5-(2,5-dimethylpyridin-3-yl)-7-(2-(ethyl(methyl)amino)ethyl)-1-oxo-3,4-dihydroisoquinolin-2(1H)-yl)ethyl)-4-ethoxynicotinonitrile]	1000 to 25000 nM	10 to 1000 nM	10 to 1000 nM
CCOc1cc([C@H](C)N2CCc3c(cc(CCN(C)CC)cc3-c3cncn3C)C2=O)ncc1C#N [Example 157, (S)-4-ethoxy-6-(1-(7-(2-(ethyl(methyl)amino)ethyl)-5-(1-methyl-1H-imidazol-5-yl)-1-oxo-3,4-dihydroisoquinolin-2(1H)-yl)ethyl)nicotinonitrile]	1000 to 25000 nM	10 to 1000 nM	10 to 1000 nM
CCOc1cc(C(C)N2CCc3c(cc(CCN(C)CC)cc3C3CC3)C2=O)ncc1C#N (stereo not drawn) [Example 158, 6-(1-(5-cyclopropyl-7-(2-(ethyl(methyl)amino)ethyl)-1-oxo-3,4-dihydroisoquinolin-2(1H)-yl)ethyl)-4-ethoxynicotinonitrile]	1000 to 25000 nM	10 to 1000 nM	10 to 1000 nM
CCOc1cc([C@H](C)N2CCc3c(cc(CCN(C)CC)cc3-c3cc(C4CC4)cnc3C)C2=O)ncc1C#N [Example 160, (S)-6-(1-(5-(5-cyclopropyl-2-methylpyridin-3-yl)-7-(2-(ethyl(methyl)amino)ethyl)-1-oxo-3,4-dihydroisoquinolin-2(1H)-yl)ethyl)-4-ethoxynicotinonitrile]	10 to 1000 nM	10 to 1000 nM	< 10 nM
CCOc1cc([C@H](C)N2CCc3c(cc(CCN(C)CC)cc3-c3ccn(C)c(=O)c3C)C2=O)ncc1C#N [Example 161, (S)-6-(1-(5-(1,3-dimethyl-2-oxo-1,2-dihydropyridin-4-yl)-7-(2-(ethyl(methyl)amino)ethyl)-1-oxo-3,4-dihydroisoquinolin-2(1H)-yl)ethyl)-4-ethoxynicotinonitrile]	10 to 1000 nM	10 to 1000 nM	< 10 nM
CCOc1cc([C@H](C)N2CCc3c(cc(CCN(C)CC)cc3-c3cc(N)ncc3C)C2=O)ncc1C#N [Example 162, (S)-6-(1-(5-(2-amino-5-methylpyridin-4-yl)-7-(2-(ethyl(methyl)amino)ethyl)-1-oxo-3,4-dihydroisoquinolin-2(1H)-yl)ethyl)-4-ethoxynicotinonitrile]	10 to 1000 nM	10 to 1000 nM	< 10 nM
CCOc1cc([C@H](C)N2CCc3c(cc(CCN(C)CC)cc3-c3cc(C)ncc3C)C2=O)ncc1C#N [Example 163, (S)-6-(1-(5-(2,5-dimethylpyridin-4-yl)-7-(2-(ethyl(methyl)amino)ethyl)-1-oxo-3,4-dihydroisoquinolin-2(1H)-yl)ethyl)-4-ethoxynicotinonitrile]	10 to 1000 nM	10 to 1000 nM	< 10 nM
CCOc1cc(CN2CCc3c(cc(CCN(C)CC)cc3-c3cc(OC)ncc3C)C2=O)ncc1C#N [Example 164, 4-ethoxy-6-((7-(2-(ethyl(methyl)amino)ethyl)-5-(2-methoxy-5-methylpyridin-4-yl)-1-oxo-3,4-dihydroisoquinolin-2(1H)-yl)methyl)nicotinonitrile]	10 to 1000 nM	10 to 1000 nM	< 10 nM
CCOc1cc([C@H](C)N2CCc3c(cc(CCN(C)CC)cc3-c3cn(CC)nc3C(F)F)C2=O)ncc1C#N [Example 165, (S)-6-(1-(5-(3-(difluoromethyl)-1-ethyl-1H-pyrazol-4-yl)-7-(2-(ethyl(methyl)amino)ethyl)-1-oxo-3,4-dihydroisoquinolin-2(1H)-yl)ethyl)-4-ethoxynicotinonitrile]	10 to 1000 nM	10 to 1000 nM	< 10 nM
CCOc1cc([C@H](C)N2CCc3c(cc(CCN(C)CC)cc3-c3cc(C)ncc3Cl)C2=O)ncc1C#N [Example 166, (S)-6-(1-(5-(5-chloro-2-methylpyridin-4-yl)-7-(2-(ethyl(methyl)amino)ethyl)-1-oxo-3,4-dihydroisoquinolin-2(1H)-yl)ethyl)-4-ethoxynicotinonitrile]	10 to 1000 nM	10 to 1000 nM	< 10 nM
